Key:
[1] = target: Alpha-2C adrenergic receptor (Homo sapiens, UniProt P18825)
D(4) dopamine receptor = D(4) dopamine receptor (Homo sapiens, UniProt P21917)
B2 bradykinin receptor = B2 bradykinin receptor (Homo sapiens, UniProt P30411)
Mu-type opioid receptor = Mu-type opioid receptor (Homo sapiens, UniProt P35372)
[2] = target: 5-hydroxytryptamine receptor 6 (Homo sapiens, UniProt P50406)
[3] = target: Beta-3 adrenergic receptor (Homo sapiens, UniProt P13945)
[4] = target: 5-hydroxytryptamine receptor 1A (Homo sapiens, UniProt P08908)
[5] = target: Cysteinyl leukotriene receptor 1 (Cavia porcellus, UniProt Q2NNR5)
Sequence of Cysteinyl leukotriene receptor 1 (Q2NNR5 whole entry): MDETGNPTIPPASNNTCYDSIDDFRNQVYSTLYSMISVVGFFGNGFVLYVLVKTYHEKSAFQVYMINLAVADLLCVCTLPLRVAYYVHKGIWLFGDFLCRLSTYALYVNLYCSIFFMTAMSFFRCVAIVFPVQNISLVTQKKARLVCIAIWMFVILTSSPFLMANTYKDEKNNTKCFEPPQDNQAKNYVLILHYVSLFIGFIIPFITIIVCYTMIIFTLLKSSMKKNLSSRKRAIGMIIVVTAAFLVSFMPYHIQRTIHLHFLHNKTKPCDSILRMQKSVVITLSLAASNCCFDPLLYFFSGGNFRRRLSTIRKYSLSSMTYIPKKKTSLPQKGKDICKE

[6] = target: Sodium- and chloride-dependent glycine transporter 2 (Homo sapiens, UniProt Q9Y345)
Sequence of Sodium- and chloride-dependent glycine transporter 2 (Q9Y345 whole entry): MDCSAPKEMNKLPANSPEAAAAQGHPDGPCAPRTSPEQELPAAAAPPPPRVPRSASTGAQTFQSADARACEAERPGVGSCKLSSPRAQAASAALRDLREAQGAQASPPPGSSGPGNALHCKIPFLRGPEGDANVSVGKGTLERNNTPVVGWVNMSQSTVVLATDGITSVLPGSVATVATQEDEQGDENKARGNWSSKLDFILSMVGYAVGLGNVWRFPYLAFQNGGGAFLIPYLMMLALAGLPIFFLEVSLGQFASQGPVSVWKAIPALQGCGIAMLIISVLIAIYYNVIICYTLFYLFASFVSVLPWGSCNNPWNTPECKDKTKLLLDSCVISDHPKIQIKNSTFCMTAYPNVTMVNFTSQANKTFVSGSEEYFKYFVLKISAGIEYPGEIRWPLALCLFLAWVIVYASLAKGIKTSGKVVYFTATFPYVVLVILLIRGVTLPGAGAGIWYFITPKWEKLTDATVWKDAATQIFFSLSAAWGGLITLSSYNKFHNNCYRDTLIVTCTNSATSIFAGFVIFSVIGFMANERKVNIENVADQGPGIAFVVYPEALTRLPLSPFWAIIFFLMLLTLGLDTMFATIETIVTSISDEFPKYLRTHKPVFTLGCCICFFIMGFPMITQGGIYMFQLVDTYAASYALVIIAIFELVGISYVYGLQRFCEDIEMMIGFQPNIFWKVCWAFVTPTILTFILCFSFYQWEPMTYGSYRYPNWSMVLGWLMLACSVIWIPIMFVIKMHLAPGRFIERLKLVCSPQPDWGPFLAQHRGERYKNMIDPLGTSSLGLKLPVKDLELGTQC

[7] = target: Beta-1 adrenergic receptor (Homo sapiens, UniProt P08588)
[8] = target: Sodium- and chloride-dependent glycine transporter 1 (Rattus norvegicus, UniProt P28572)
Substance-K receptor = Substance-K receptor (Homo sapiens, UniProt P21452)
[9] = target: Sodium-dependent dopamine transporter (Rattus norvegicus, UniProt P23977)
[10] = target: Norepinephrine transporter (Rattus norvegicus, UniProt Q9JIA2)
Thromboxane A2 receptor = Thromboxane A2 receptor (Homo sapiens, UniProt P21731)
Sequence of Thromboxane A2 receptor (P21731 whole entry): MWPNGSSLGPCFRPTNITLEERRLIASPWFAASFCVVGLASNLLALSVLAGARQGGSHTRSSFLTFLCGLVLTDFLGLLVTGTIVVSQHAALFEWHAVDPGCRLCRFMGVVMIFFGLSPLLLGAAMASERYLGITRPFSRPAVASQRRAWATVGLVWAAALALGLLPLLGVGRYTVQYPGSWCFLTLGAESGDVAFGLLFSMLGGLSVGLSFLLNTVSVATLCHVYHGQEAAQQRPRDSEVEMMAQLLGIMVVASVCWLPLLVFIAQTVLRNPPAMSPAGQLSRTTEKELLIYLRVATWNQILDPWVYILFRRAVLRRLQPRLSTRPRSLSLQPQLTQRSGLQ

[11] = target: Alpha-1A adrenergic receptor (Homo sapiens, UniProt P35348)
[12] = target: 5-hydroxytryptamine receptor 2C (Homo sapiens, UniProt P28335)
Sequence of 5-hydroxytryptamine receptor 2C (P28335 whole entry): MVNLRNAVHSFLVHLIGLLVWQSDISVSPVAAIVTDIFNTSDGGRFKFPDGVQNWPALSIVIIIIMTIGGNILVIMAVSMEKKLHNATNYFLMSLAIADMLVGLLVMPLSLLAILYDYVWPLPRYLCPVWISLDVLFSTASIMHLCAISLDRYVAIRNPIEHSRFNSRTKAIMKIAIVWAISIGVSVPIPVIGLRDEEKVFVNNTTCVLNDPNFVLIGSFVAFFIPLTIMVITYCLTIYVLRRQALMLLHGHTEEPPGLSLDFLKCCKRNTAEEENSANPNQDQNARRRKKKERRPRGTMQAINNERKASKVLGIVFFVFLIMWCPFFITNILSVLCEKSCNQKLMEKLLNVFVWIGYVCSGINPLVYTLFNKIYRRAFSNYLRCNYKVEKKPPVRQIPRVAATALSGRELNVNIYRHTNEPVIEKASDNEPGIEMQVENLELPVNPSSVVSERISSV

[13] = target: Glutamate receptor ionotropic, NMDA 1 (Rattus norvegicus, UniProt P35439)
[14] = target: Vasoactive intestinal polypeptide receptor 1 (Homo sapiens, UniProt P32241)
[15] = target: Kappa-type opioid receptor (Cavia porcellus, UniProt P41144)
Sequence of Kappa-type opioid receptor (P41144 whole entry): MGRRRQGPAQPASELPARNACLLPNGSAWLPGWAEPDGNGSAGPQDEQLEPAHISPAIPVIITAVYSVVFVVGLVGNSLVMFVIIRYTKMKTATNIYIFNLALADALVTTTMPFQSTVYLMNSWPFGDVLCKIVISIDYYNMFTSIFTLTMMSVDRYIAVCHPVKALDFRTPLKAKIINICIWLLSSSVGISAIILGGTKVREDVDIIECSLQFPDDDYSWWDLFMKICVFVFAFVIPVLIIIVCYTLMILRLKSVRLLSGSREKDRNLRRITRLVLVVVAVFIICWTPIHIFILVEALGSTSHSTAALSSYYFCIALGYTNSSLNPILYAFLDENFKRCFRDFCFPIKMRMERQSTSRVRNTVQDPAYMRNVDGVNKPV

[16] = target: 5-hydroxytryptamine receptor 7 (Homo sapiens, UniProt P34969)
[17] = target: 5-hydroxytryptamine receptor 2A (Homo sapiens, UniProt P28223)
[18] = target: Delta-type opioid receptor (Homo sapiens, UniProt P41143)
D(3) dopamine receptor = D(3) dopamine receptor (Homo sapiens, UniProt P35462)
Sequence of D(3) dopamine receptor (P35462 as listed by the source): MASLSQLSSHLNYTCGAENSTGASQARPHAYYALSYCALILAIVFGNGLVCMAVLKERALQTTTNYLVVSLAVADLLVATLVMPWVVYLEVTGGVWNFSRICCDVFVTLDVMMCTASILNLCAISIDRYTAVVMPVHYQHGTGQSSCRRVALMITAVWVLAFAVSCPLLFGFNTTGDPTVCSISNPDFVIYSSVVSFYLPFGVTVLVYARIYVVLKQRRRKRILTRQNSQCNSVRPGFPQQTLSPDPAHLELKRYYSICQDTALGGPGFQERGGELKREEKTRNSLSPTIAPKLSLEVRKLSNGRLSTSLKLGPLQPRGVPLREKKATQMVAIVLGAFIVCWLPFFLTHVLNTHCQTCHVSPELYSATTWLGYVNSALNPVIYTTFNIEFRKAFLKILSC

[19] = target: 5-hydroxytryptamine receptor 3A (Mus musculus, UniProt P23979)
Sequence of 5-hydroxytryptamine receptor 3A (P23979 as listed by the source): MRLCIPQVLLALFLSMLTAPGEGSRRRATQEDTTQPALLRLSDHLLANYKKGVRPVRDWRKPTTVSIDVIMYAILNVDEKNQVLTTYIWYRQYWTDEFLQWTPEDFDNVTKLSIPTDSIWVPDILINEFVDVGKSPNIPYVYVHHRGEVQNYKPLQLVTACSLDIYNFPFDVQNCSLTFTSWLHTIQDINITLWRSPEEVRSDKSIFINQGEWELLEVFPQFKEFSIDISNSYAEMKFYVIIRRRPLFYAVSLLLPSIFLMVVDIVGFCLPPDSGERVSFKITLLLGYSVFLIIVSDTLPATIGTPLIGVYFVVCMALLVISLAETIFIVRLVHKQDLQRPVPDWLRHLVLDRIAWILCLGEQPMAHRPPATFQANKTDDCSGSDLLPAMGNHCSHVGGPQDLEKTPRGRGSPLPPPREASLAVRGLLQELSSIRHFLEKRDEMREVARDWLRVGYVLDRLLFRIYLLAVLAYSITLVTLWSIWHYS

[20] = target: 5-hydroxytryptamine receptor 1E (Homo sapiens, UniProt P28566)
Neuromedin-K receptor = Neuromedin-K receptor (Homo sapiens, UniProt P29371)
[21] = target: 5-hydroxytryptamine receptor 5A (Homo sapiens, UniProt P47898)
[22] = target: Alpha-2A adrenergic receptor (Homo sapiens, UniProt P08913)
[23] = target: 5-hydroxytryptamine receptor 1D (Homo sapiens, UniProt P28221)
Sequence of 5-hydroxytryptamine receptor 1D (P28221 whole entry): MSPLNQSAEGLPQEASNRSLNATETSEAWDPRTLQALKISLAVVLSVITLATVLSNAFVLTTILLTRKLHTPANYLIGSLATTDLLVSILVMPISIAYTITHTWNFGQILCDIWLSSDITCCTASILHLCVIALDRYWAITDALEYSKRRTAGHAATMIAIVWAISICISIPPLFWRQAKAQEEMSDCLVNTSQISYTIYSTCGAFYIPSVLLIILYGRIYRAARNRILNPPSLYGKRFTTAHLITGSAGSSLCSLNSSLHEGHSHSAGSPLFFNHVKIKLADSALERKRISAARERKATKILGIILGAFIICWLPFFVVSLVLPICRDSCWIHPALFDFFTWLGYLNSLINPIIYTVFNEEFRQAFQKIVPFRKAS

Neurotensin = Neurotensin (Cavia porcellus, UniProt P32560)
[24] = target: Alpha-2B adrenergic receptor (Homo sapiens, UniProt P18089)
Sequence of Alpha-2B adrenergic receptor (P18089 whole entry): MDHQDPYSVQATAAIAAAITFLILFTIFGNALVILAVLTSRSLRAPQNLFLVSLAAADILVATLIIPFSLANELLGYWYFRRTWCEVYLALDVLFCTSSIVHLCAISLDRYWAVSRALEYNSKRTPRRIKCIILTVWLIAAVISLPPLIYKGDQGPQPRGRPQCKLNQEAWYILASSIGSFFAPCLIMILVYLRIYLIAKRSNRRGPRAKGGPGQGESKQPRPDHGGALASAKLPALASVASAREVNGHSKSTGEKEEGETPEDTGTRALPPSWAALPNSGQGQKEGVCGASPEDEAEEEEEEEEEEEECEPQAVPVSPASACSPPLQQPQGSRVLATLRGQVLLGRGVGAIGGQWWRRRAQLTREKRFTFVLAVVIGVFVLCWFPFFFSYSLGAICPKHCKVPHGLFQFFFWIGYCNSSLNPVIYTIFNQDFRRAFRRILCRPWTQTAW

[25] = target: Beta-2 adrenergic receptor (Homo sapiens, UniProt P07550)
[26] = target: Gastrin/cholecystokinin type B receptor (Homo sapiens, UniProt P32239)
Sequence of Gastrin/cholecystokinin type B receptor (Homo sapiens, UniProt P32239) (P32239 whole entry): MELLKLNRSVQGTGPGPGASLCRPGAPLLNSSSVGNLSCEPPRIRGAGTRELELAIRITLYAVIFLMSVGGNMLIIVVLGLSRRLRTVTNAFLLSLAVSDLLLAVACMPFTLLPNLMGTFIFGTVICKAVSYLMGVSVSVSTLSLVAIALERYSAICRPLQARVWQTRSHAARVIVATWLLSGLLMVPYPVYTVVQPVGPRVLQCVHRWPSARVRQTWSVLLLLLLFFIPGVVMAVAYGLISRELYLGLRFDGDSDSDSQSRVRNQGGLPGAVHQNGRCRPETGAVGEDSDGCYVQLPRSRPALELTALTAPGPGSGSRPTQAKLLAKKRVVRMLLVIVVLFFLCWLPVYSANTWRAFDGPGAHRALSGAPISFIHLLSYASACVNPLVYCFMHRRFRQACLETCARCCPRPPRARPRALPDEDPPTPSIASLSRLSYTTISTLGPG

Histamine H1 receptor = Histamine H1 receptor (Homo sapiens, UniProt P35367)
[27] = target: Gastrin/cholecystokinin type B receptor (Rattus norvegicus, UniProt P30553)
[28] = target: Voltage-dependent L-type calcium channel subunit alpha-1C (Rattus norvegicus, UniProt P22002)
Substance-P receptor = Substance-P receptor (Homo sapiens, UniProt P25103)
Sequence of Substance-P receptor (P25103 whole entry): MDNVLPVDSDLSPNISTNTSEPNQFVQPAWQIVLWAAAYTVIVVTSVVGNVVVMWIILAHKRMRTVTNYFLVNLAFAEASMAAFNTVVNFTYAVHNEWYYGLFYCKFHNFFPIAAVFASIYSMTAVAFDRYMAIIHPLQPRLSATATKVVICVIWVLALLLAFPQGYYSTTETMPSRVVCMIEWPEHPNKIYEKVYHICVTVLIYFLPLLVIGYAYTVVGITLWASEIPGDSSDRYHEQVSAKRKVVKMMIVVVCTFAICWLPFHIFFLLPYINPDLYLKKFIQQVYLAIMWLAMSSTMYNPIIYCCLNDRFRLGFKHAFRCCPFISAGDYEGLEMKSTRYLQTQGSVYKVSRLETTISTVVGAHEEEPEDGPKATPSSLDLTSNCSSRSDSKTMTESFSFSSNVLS

[29] = target: 5-hydroxytryptamine receptor 1F (Homo sapiens, UniProt P30939)

Measured: Ki

COCCCN1CCC(NC(=O)c2cc(Cl)c(N)c3c2OCC3)CC1 [4-Amino-5-chloro-2,3-dihydro-benzofuran-7-carboxylic acid [1-(3-methoxy-propyl)-piperidin-4-yl]-amide]
> 10 µM: [1] | B2 bradykinin receptor | Mu-type opioid receptor | [2] | [3] | [4] | [5] | [6] | [7] | [8] | Substance-K receptor | [9] | [10] | Thromboxane A2 receptor | [11] | [12] | [13] | [14] | [15] | [16] | [17] | [18] | D(3) dopamine receptor | [20] | Neuromedin-K receptor | [21] | [22] | [23] | Neurotensin | [24] | [25] | [26] | Histamine H1 receptor | [27] | [28] | Substance-P receptor | [29]
3.82 µM: [19]
2.35 µM: D(4) dopamine receptor

Source: BindingDB's records for doi:10.1016/s0014-2999(01)01087-1 (Janssen Research Foundation, 2001)
